Data on three compounds can be found in patent US5667764A, “Compounds, compositions and methods for binding bio-affecting substances to surface membranes of bio-particles” (Zynaxis, Inc., priority 1992, dated 1997).

Broadly, the half-life is the time in which the quantity being followed falls by half. Low values mean fast loss, high ones slow loss. As usually defined, the EC50 is the concentration needed to bring the measured effect to its halfway point. Low values mean an effect from little substance, high ones a need for much substance.

A short description of data set [1]: In vivo loss of dye from labeled, reinjected erythrocytes. As to conditions: rabbit, iv.
Source text: *Half life for loss of dye from rabbit erythrocytes after labeling and
Data set [2] concerns red blood cell ghosts (plasma membrane). Description: Membrane retention coefficient (MRC) in red blood cell ghosts. It counts as binding. As to conditions: 24 hr; Table II. The essentials:
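Red blood cell ghosts (~1×10^9/ml) were labelled 10 min with compound diluted in iso-osmotic sucrose from ethanol stocks, then washed repeatedly in PBS with 10% FBS over ≥24 h. Total and supernatant compound were measured after n-butanol extraction (fluorescence for fluorescent compounds), and MRC was calculated from these at each wash or time point.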

For data set [3], the system named is cells (red cell membranes). Put plainly: Number of molecules of compound incorporated per cell. It counts as cell-based. As to conditions: 10 μM compounds. The protocol:
Number of molecules of compound incorporated per cell was determined for cells labeled with 10 μM compounds. An aliquot of 10^6 cells (10 ul) was withdrawn from the washed cells after final resuspension and counting, compounds were extracted from the cell membrane by admixture with 250 μl of 100% ethanol, and the fluorescence intensity of 200 μl of the extract was measured using a Fluoroskan II fluorescence microplate reader and filter combination. Concentration of compound in each extract was determined from a calibration curve of known compound concentrations made up in 100% ethanol and measured on the Fluoroskan II. Number of molecules of compound per cell was then calculated from the known extract concentration, total volume of extract, and known number of cells extracted. Calculated values were (4.0±0.4)×10^6 for compound T (1.3±0.2)×10^6 for compound AA and (2.5±0.7)×10^6 for compound AB.

The next data set concerns synovial cells. Put plainly: Synovial distribution after intra-articular injection. The data set is classed as in vivo. The note with it: 1 hour after injection into the knee, 10 μM. As to the method:
To estimate the homogeneity or heterogeneity of incorporation by synovial cells after intra-articular injection, approximately 0.1 mL of a 10 μM solution of an iodide salt of compound T (see Example 2, above) in 300 mOsM pH 7.0 glucose was injected into the knee as described in Example 10. After 1 hour, the animal was sacrificed, and both injected and uninjected knee joints were dissected. Preparation of whole joint cross sections was not feasible because demineralization is required to cut thin sections and demineralizing solvents remove compounds of the invention from tissue. Therefore the infrapatellar fat pads which underlie the kneecap and form one boundary of the synovial cavity were carefully removed, snap frozen on dry ice, and stored at -80° until frozen sections could be prepared. Thick (10μ) cryostat sections were cut, adhered to glass slide, and evaluated by light and fluorescence microscopy.
(The synovial layer is only 1-2 cells thick in a normal joint but becomes thickened due to hyperproliferation in an arthritic joint.) The rest of the tissue was composed primarily of large fat cells.

The test system of data set [4] is erythrocyte membrane ghosts. Put plainly: Relative membrane retention in erythrocyte membrane ghosts (iodination study). It counts as binding. The note with it: 24 hours, 37° C., PBS+EDTA+5% BSA. The protocol:
Relative membrane retention was determined using erythrocyte membrane ghosts prepared by NH4 Cl lysis (Slezak and Horan, Blood, supra). Ghosts were labeled at 4×10^8 /ml with 10 μM compounds for 5 minutes at room temperature, using previously described procedures. However, post-labeling washes were carried out using PBS containing 1 mM EDTA and 5% BSA. After the final wash, ghosts were resuspended at 4×10^8 /ml in PBS+EDTA+5% BSA and incubated for 24 hours at 37° C. At 24 hours, duplicate 50 μl aliquots were withdrawn from a) the well mixed suspension of ghosts (for determination of total compound present), and b) the supernatant remaining after ghosts were pelleted for 15 minutes at 12,500×g (for determination of unbound compound present). Aliquots were extracted by admixture with 200 μl of 100% ethanol and fluorescence intensity of each extract measured using the Fluoroskan II fluorescence microplate reader. Percent compound retained was calculated as
total compound--unbound compound×100/total compound

A further data set concerns membrane ghosts. Put plainly: Membrane binding stability (MBS) assay in membrane ghosts with 5% albumin. As to conditions: 24 hours; for MBS: Table III. An outline of the steps: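 Labeled membrane ghosts were suspended at decreasing numbers in a fixed volume of saline with 5% serum albumin. After 24 hours, label released into the supernatant after pelleting was expressed as percent of total. MBS is the area under the percent-retention versus ghosts/ml curve between 5×10^7 and 4×10^8 ghosts/ml.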

The test system of a further data set is cells (red cells). The note with it: 20 uM.
The test system of another data set is SMC cell surfaces. As to conditions: cited from earlier work.
In a further data set the test system is myointimal thickening. The note with it: cell culture or animals after arterial injury; cited from earlier work.
Data set [5] has as its system vascular smooth muscle cells (SMC). The note with it: cited from earlier work.
The next data set deals with thrombin (Homo sapiens, UniProt P00734+P01008). Description: Thrombin inhibition (fibrin generation in diluted human plasma). The data set is classed as biochemical. The note with it: 0.5 nM thrombin; conjugate on ghosts (@1.43×10^7 ghosts/200 ul). As to the method:
The concentration response for unconjugated anti-coagulant is provided for comparison. Percentage inhibition of thrombin response (y-axis) is recorded as a function of the molar concentration of compound tested (lower x-axis; log scale), and of the number of carrier cells per test sample (upper x-axis; log scale).
To determine whether the anticoagulative properties of the compounds of the invention were retained when coated on the surface of biomembranes, in vitro studies were performed to assess the ability of the compound of invention to inhibit the coagulation enzyme, thrombin. […] Concentration of compound 21 on ghosts was assessed by placing known numbers of ghosts in microtiter plate wells and comparing the observed fluorescence to the fluorescence produced by known standard concentrations of the compound. […] 211:10 (1987), wherein 100 μl a 1:10 dilution of human plasma in phosphate buffered saline (PBS) buffer, 50 μl of PBS containing varying concentrations of labeled ghosts or standard thrombin inhibitor, and 50 μl of PBS containing a constant amount (0.5 nM) of thrombin were added to microtiter plate wells and absorbance changes at 405 nm were recorded in a spectrophotometric plate reader (Bio-Tek) over a 60 minute period. […] The absorbance changes over time data were plotted and area-under-the-curve measurements performed by computer. […]

Chain of thrombin (P01008 33-464, one chain of several): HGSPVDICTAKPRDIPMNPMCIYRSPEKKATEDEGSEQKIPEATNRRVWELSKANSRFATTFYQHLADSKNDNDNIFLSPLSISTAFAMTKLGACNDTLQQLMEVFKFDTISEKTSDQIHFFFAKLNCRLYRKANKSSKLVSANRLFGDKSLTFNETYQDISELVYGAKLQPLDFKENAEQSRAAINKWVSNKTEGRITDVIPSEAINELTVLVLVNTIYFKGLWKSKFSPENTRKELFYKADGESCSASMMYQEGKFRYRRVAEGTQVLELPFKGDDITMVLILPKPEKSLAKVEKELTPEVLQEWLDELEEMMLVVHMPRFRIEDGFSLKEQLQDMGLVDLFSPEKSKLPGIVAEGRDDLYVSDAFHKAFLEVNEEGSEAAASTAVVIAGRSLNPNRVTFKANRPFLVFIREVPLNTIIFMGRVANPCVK

In turn, `CCCCCCCCCCCCCCCCCCCCCCN1C(=CC=CC2=[N+](CCCCCCCCCCCCCC)c3ccccc3C2(C)C)C(C)(C)c2ccccc21` [T] had a half-life in data set [1] of 130 days. Further, the “MRC# (at 24 hr.)” value in [2] was found to be 97 ± 0.1. The “Number of molecules of compound incorporated per cell” value in data set [3] was “(4.0±0.4)×10^6 molecules of compound per cell”. The “Labeling of infrapatellar fat pad cross sections” value with synovial cells is “bright and relatively homogeneous labeling was essentially confined to the synovial cell layer”. In [4], the Percent compound retained was 91.9±2.9%. Besides, in the data set on membrane ghosts (Table II), the “MBS (% of max.)” value is reported as 85 ± 1.7 % of max. The compound further yielded an MBS with membrane ghosts of 85 ± 1.7%.
Turning to `CCCCCCCCCCCCCCCCCCCCCC[N+]1=C(C=CC=C2N(CCCCCCCCCCCCCC)c3ccc(CNC=O)cc3C2(C)C)C(C)(C)c2ccccc21` [AB], in data set [3], the “Number of molecules of compound incorporated per cell” value is recorded as “(2.5±0.7)×10^6 molecules of compound per cell”. The Viability and recovery in the data set with cells (red cells) is recorded as 70-80%. In [4], this compound had a Percent compound retained of 96.8±1.3%. The same compound yielded an MBS in the data set on membrane ghosts of 91 ± 0.5%.
In the case of Heparin, the “Binding to SMC cell surfaces” value in the data set with SMC cell surfaces was “binds to SMC cell surfaces via high affinity binding sites and is taken up intracellularly”. In addition, the “Effect of heparin on smooth muscle cells / after arterial injury” value in the data set on myointimal thickening is “decreased growth and reduced myointimal thickening and cell proliferation”. Further, the “Inhibition of cell growth / antiproliferative activity” value in data set [5] was “inhibit the growth of several different cell types, including vascular smooth muscle cells (SMC)”. At thrombin, this compound came in with an EC50 of 1.03 nM.
